Data: US4771041A, “Method for combating virus infection” (priority 1976, dated 1988)

Legend:
[1] = tested on: type B influenza virion-associated RNA polymerase; test: Inhibition of type B influenza virion-associated RNA polymerase; format: biochemical, influenza B Hongkong 8/73; details: 500 μM; GTP 135 μM
Method: Polymerases, nucleic acid template nucleoside triphosphates, of which guanosine triphosphate is tritium-labelled, salt and buffer are mixed at 0° C. in a total volume of 125 μl (for herpes DNA polymerase, see F. below). The concentrations of the nucleoside triphosphates UTP (uridine triphosphate), CTP (cytidinetriphosphate), GTP (guanosinetriphosphate) and ATP (adenosinetriphosphate) were generall 400, 400, 400, and 2000 μM, respectively. The test compound is also added in various concentrations to the mixture obtained. A standard mixture without test compound is also prepared using the same amounts of the ingredients. The enzyme reaction, i.e. synthesis of nucleic acid, is started by incubating the mixture at 37° C. For influenza RNA polymerases the temperature is 33° C. The reaction is allowed to proceed for 60 minutes in the assay of influenza and Micrococcus polymerases. […] The incorporation of labelled monomer into trichloroacetic acid insoluble nucleic acid product was measured in the following way. […] After drying the discs are measured for radioactivity in a liquid scintillation counter. The difference in radioactivity between samples with and without added compound is used to calculate the inhibition of the polymerase activity. The inhibition is expressed as percentage inhibition using the radioactivity of the standard sample as basis. […]

herpes simplex type 1 = test: Herpes simplex type 1 plaque reduction assay on GMK monolayers; format: cell-based; details: mean of three experiments
Method: (§1) The inhibition of influenza virus and herpes virus by phosphonoformic acid has been measured as plaque reaction according to the following procedures.
H. Inhibition by phosphonoformic acid of herpes simplex type 1 plaque
(§2) The plaque reduction assay for herpes simplex type 1 was performed on GMK (Green Monkey Kidney) cells as described by Ejereito et el., J. Gen. Virol. 2 (1968) 357. Monolayers on 5 cm petri dishes were used and after virus adsorption phosphonoformic acid was added in the medium.

[2] = tested on: herpes simplex type 2 patient isolates; test: Herpes simplex type 2 plaque reduction assay on SIRC monolayers; format: cell-based; details: Human alphaherpesvirus 2
Method: as §1, §2
I. Inhibition by phosphonoformic acid of herpes simplex type 2 plaque
The plaque reduction assay for herpes simplex type 2 was performed in the same way as in experiment H. The results are shown in Table 9.

[3] = molecular target: T1, reverse transcriptase from VV (Maedi visna virus, UniProt P03370); test: Cell-free reverse transcriptase inhibition, VV; format: biochemical; details: template/primer (rA)n.(dT)10, read-out: Percent inhibition
T1 construct: Reverse transcriptase from various retroviruses have been tested in cell-free assays; made in house
Method: (§3) Reverse transcriptase from various retroviruses have been tested in cell-free assays for inhibition by phosphonoformic acid and phosphonoacetic acid. The assay conditions have been described by Collaborative Research, Inc, 1365 Main Street, Waltham, Mass., USA "Assay kit for mammalian viral reverse transcriptase". BLV and VV were prepared in this laboratory and all other viruses and viral enzyme were obtained from Dr. K Nilsson, Department of Pathology, University of Uppsala and from Boehringer Mannheim, Germany. Phosphonoformic acid (PFA) and phosphonoacetic acid (PAA) were added at pH 7.2 to the reaction mixtures at the start of the reaction.
(§4) Rauscher murine leukemia virus; RMuLV, visna virus; VV, avian myeloblastosis virus; AMV, bovine leukemia virus; BLV, baboon endogenous virus; BaEV, simian sarcoma virus; SSV.

[4] = molecular target: T2, reverse transcriptase from BaEV (Baboon endogenous virus, UniProt P10272); test: Cell-free reverse transcriptase inhibition, BaEV; format: biochemical; details: template/primer (rA)n.(dT)10, read-out: Percent inhibition
T2 construct: Reverse transcriptase from various retroviruses have been tested in cell-free assays
Method: as §3, §4

[5] = tested on: Ehrlich ascites tumors (Friend virus); test: Survival of NMRI mice bearing Ehrlich ascites tumors; format: in vivo; details: 100 mg/kg per day ip, 2% solution pH 7.2; versus 0.95% NaCl control; FIG. 2
Method: (§5) The inhibition of reverse transcriptase by phosphonoformic acid (PFA) has prompted an investigation of the effect of PFA on animals with tumors where retroviruses are implicated. Ehrlich ascites tumors (Friend virus) in NMRI mice and YBA solid tumors (Moloney virus) in CBA mice have been used.
(§6) NMRI mice were inoculated intraperitoneally with 0.1 ml of a 1/10 dilution of ascitic fluid from a mouse with an Ehrlich ascites tumor. Nine mice were given intraperitoneally 100 mg/kg of PFA per day as a 2% solution at pH 7.2, and 9 mice were treated with 0.95% NaCl ip. CBA mice were inoculated with 7×10^6 cells subcutaneously in the flank. Fifteen CBA mice were given 0.5% PFA at pH 7.2 in the drinking water and fifteen water without addition.

[6] = tested on: YBA solid tumors (Moloney virus); test: Survival of CBA mice bearing YBA solid tumors; format: in vivo; details: 0.5% in the drinking water, pH 7.2; FIG. 3
Method: as §5, §6

[7] = Toxicity controls with substance in uninfected mice; format: in vivo
Text: Toxicity controls with substance were given to uninfected animals.

Acute toxicity in mice = test: Acute toxicity in mice; set-up: species or system male mice of NMRI strain; details: mouse, in vivo, ip, as sodium salt, male NMRI mice
Method: Phosphonoformic acid was tested for acute toxicity in mice. The compound (as its sodium salt) was given as solution i.p. in doses of 250, 500, 1000, 2000 and 4000 μmol/kg. Groups of 4 male mice of NMRI strain weighing 18.5-20.5 g were used for each dose.

T2 sequence (P10272 659-1335): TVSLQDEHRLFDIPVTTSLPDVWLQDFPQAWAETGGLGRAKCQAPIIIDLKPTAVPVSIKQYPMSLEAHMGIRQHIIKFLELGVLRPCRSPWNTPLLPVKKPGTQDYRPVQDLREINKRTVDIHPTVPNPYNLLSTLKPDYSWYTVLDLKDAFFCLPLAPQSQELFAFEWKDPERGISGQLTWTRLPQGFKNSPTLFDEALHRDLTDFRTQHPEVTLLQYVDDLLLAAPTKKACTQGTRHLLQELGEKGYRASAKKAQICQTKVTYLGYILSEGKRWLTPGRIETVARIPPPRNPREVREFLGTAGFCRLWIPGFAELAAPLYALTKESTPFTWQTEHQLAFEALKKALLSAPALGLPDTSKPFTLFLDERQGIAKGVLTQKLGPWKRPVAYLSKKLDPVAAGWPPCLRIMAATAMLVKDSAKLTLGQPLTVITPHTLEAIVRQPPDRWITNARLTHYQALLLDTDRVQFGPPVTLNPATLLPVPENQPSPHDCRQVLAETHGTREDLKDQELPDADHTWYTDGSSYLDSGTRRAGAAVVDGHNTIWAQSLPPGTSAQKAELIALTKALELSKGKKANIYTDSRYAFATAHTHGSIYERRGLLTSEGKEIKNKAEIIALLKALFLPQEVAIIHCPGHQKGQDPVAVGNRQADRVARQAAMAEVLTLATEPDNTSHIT
T1 sequence (P03370 541-1111): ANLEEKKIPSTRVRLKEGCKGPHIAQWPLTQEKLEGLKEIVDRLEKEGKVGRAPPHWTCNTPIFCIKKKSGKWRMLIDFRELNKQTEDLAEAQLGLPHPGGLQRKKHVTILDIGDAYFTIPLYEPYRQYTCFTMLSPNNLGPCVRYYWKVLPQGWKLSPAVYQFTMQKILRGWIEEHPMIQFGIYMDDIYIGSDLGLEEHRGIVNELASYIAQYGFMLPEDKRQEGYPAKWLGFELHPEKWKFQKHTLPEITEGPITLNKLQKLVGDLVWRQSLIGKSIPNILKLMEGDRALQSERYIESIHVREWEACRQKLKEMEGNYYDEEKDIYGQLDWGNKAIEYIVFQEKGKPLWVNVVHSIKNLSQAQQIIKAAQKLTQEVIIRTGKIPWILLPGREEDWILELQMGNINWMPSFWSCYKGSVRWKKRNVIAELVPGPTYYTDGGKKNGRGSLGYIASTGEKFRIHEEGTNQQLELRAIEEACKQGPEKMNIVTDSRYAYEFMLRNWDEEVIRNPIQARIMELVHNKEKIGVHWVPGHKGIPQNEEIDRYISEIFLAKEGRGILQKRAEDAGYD

Structure (SMILES): O=C(O)P(=O)(O)O [phosphonoformic acid]
- Inhibition [1]: 100%
- inhibition at 1 µM (herpes simplex type 1; Human alphaherpesvirus 1, 1 μM): 0%
- inhibition at 15 µM (herpes simplex type 1; Human alphaherpesvirus 1, 15 μM): 50%
- inhibition at 100 µM (herpes simplex type 1; Human alphaherpesvirus 1, 100 μM): 90%
- inhibition at 500 µM [2]: 99.9%
- inhibition at 100 µM ([3]; 100 μM): 95%
- inhibition at 500 µM ([3]; 500 μM): 99%
- inhibition at 10 µM ([4]; 10 μM): 96%
- inhibition at 100 µM ([4]; 100 μM): > 99%
- inhibition at 500 µM ([4]; 500 μM): > 99%
- survival of mice inoculated with Ehrlich ascites cells [5]: increased survival
- survival of mice inoculated with YBA cells [6]: increased survival
- deaths in substance control group ([7]; 0.5% in the drinking water, 10 mice): No mice died
- deaths in toxicity control group ([7]; uninfected mice, 100 mg/kg/day, 10 animals): No mice died
- LD50 (Acute toxicity in mice): 2000 to 4000 µmol/kg
